Consider two compounds from patent US20230346705A1, “NANOPARTICLES FOR TREATING OR PREVENTING A CARDIOMYOPATHY AND ANTHRACYCLINE-CYTOTOXICITY, AND THEIR ADMINISTRATION AS AN AEROSOL” (INSTITUT NATIONAL DE LA SANTE ET DE LA RECHERCHE MEDICALE …, priority 2020, published 2023).

The subject of series [1] is H9C2 cells. Briefly: Lysosomal pH (Acridine Orange, Lysosensor) in H9C2. It counts as cell-based, Rat. Here is the method: Acridine Orange (Sigma Aldrich), a weak base which accumulates in acidic organelles, was used to label the lysosomes. After treatments, cells were incubated with 5 μM AO for 10 min at 37° C. and washed twice with PBS. Red fluorescence (corresponding to acidic vesicles staining) was measured using a Varioskan Flash Multimode Microplate Reader with excitation/emission at 480/630 nm. Representative pictures were taken with an epifluorescence microscope (DM600 microscope, Leica).
Lysosomal acidification was measured in H9C2 and NRVMs loaded with 2 μM LysoSensor yellow/blue DND-160 (Invitrogen) for 15 min at 37° C. The LysoSensor dye is a ratiometric probe that produces yellow fluorescence in acidic environments, but changes to blue fluorescence in neutral environments. pH calibration was performed following the protocol established by Diwu et al. (Chem Biol. (1999); 6(7):411-418). Briefly, cells were incubated in MES buffer (5 mMNaCl, 115 mMKCl, 1.3 mM MgSO 4, 25 mM MES) supplemented with 10 μM nigericin and 10 μM monensin, for 10 min, with pH adjusted to a range from 3 to 7. The samples were read in a Varioskan Flash Multimode Microplate Reader with excitation at 360 nm. The ratio of emission 440/540 nm was then calculated for each sample.

Another series deals with LC3-II and p62. Briefly: Western blot of autophagy markers LC3-II and p62 in H9C2. It counts as cell-based, Rat. The note with it: H9C2, Baf A1 treatment alone. Here is the method:
H9C2 or NRVMs extracts were prepared by lysing in RIPA buffer (50 mM Tris pH 7.2, 500 mM NaCl, 1% Triton X-100, 1 mM EDTA, 100 mM sodium fluoride, 5 mM sodium metavanadate, 10 mM sodium pyrophosphate) and equal protein amounts were subjected to sodium dodecyl sulfate-polyacrylamide gel electrophoresis (SDS-PAGE) in 10-15% gels depending upon protein molecular weight. After electrophoresis, proteins were transferred to nitrocellulose membranes and incubated with the following antibodies: anti-GAPDH, anti-LC3B, anti-cleaved caspase 3, anti-p-p53 from Cell Signaling Technology, anti-p62 from Abnova, anti-Lamp1, anti-cathepsin D from Abcam. Proteins were detected by chemiluminescence with a Bio-Rad ChemiDoc XRS camera. Relative densities were quantified using the ImageLab 5.2.1 software (Bio-Rad). All data were normalized by internal controls.

Series [2] relates to H9C2 cells. Briefly: Autophagosomes/autolysosomes visualization (GFP-LC3, RFP-GFP-LC3) in H9C2. It counts as cell-based, Rat. As to the method:
Autophagosomes were visualized in GFP-LC3-transduced cells. Autophagic flux was evaluated in RFP-GFP-LC3-transduced cells. Representative images were taken with an epifluorescence microscope (DM600 microscope, Leica) and quantification of yellow puncta (autophagosomes) and red puncta (autolysosomes) was performed using Image J software.

Series [3] has as its system neonatal rat ventricular myocytes (NRVMs). Nature of the series: Mitochondrial ROS (mitoSOX) in NRVMs. The note with it: doxorubicin 250 nM alone. It counts as cell-based. Here is the method:
(§1) Cellular ROS were measured using the fluorescent probe DCFDA assay at a concentration of 5 μM (ThermoFisher Scientific). Fluorescence was quantified using a fluorimeter TECAN infinite proF200 with excitation/emission at 500/530 nm. Mitochondrial ROS were measured by mitoSOX probe (Invitrogen, Molecular Probes). Briefly, the cells were loaded with mitoSOX probe at a final concentration of 5 μM and incubated for 30 min after the indicated treatments. Cells were resuspended in HBSS before reading in Tecan plate reader.

In series [4] the test system is H9C2 cells. Nature of the series: Mitochondrial membrane potential (JC-1 probe) in H9C2. The note with it: H9C2, 10 h after doxorubicin 1 μM alone. It counts as cell-based, Rat. As to the method:
The mitochondrial membrane potential was evaluated using JC-1 probe (ThermoFisher Scientific). Before the end of treatments, cells were loaded with JC-1 probe at a concentration of 5 μg/ml for 10 min at 37° C. Then, medium was replaced by HBSS and the fluorescence was recorded at 535 nm (excitation wavelength, emission at 590 nm) to measure the formation of red aggregates and at 485 (excitation wavelength, emission at 530 nm) to measure the presence of green monomers, using a fluorimeter TECAN infinite pro F200. Representative images were taken with an epifluorescence microscope (DM600 microscope, Leica).

In series [5] the test system is neonatal rat ventricular myocytes (NRVMs). Briefly: Lysosomal pH (Acridine Orange, Lysosensor) in NRVMs. It counts as cell-based. The settings on record: doxorubicin 250 nM alone. Here is the method:
Rat H9C2 cardiomyoblasts (American Type Culture Collection, Rockville, U.S.A.) were grown in DMEM media containing 10% heat-inactivated FBS under 5% CO2 and 95% air at 37° C. H9C2 serve as an animal-free alternative sharing many physiological properties of primary cardiac cells. For neonatal rat ventricular myocytes (NRVMs), rats of 1-2 days old were euthanized and hearts were excised before the atria were removed. Primary culture of NRVMs was subsequently performed as previously described (Manzella et al. 2018; Aging Cell 17(5):e12811). NRVMs were grown in Ham-F12 medium containing 10% heat-inactivated FBS and 10% heat-inactivated HS under 5% CO2 and 95% air at 37° C. […]
Acridine Orange (Sigma Aldrich), a weak base which accumulates in acidic organelles, was used to label the lysosomes. […] Red fluorescence (corresponding to acidic vesicles staining) was measured using a Varioskan Flash Multimode Microplate Reader with excitation/emission at 480/630 nm. […]
Lysosomal acidification was measured in H9C2 and NRVMs loaded with 2 μM LysoSensor yellow/blue DND-160 (Invitrogen) for 15 min at 37° C. The LysoSensor dye is a ratiometric probe that produces yellow fluorescence in acidic environments, but changes to blue fluorescence in neutral environments. pH calibration was performed following the protocol established by Diwu et al. (Chem Biol. (1999); 6(7):411-418). […]

The test system of series [6] is H9C2 cells. Briefly: Cellular ROS (DCFDA) in H9C2. Type of series: cell-based, Rat. The settings on record: H9C2, 10 h after doxorubicin 1 μM alone. Here is the method: as §1
The subject of series [7] is neonatal rat ventricular myocytes (NRVMs). Nature of the series: Cell death / toxicity (LDH release) in NRVMs. It counts as cell-based. The settings on record: doxorubicin 1 μM alone. As to the method:
Rat H9C2 cardiomyoblasts (American Type Culture Collection, Rockville, U.S.A.) were grown in DMEM media containing 10% heat-inactivated FBS under 5% CO2 and 95% air at 37° C. H9C2 serve as an animal-free alternative sharing many physiological properties of primary cardiac cells. For neonatal rat ventricular myocytes (NRVMs), rats of 1-2 days old were euthanized and hearts were excised before the atria were removed. Primary culture of NRVMs was subsequently performed as previously described (Manzella et al. 2018; Aging Cell 17(5):e12811). NRVMs were grown in Ham-F12 medium containing 10% heat-inactivated FBS and 10% heat-inactivated HS under 5% CO2 and 95% air at 37° C. Plasmid transfections with GFP-LC3, GFP-RFP-LC3 or RFP-LAMP1 constructs (Addgene) were performed using Lipofectamine 2000 reagent (Life Technologies) in Opti-MEM™ transfection medium (Gibco). […]
For quantitative assessment of cardiomyocyte necrosis, LDH release in culture medium was measured using the LDH cytotoxicity assay kit according to the manufacturer's instructions (Biovision). Apoptosis was measured in NRVMs by caspase-3 activation using a commercial kit (Biotium) according to the manufacturer's instructions.
(In general: LDH leaks from cells whose membrane has failed.)

The mark [8] stands for this setting: H9C2, Bafilomycin A1 100 nM alone.

Turning to `CO/C1=C\C(C)=C\[C@@H](C)[C@@H](O)[C@@H](C)C/C(C)=C/C=C/[C@H](OC)[C@@H]([C@@H](C)[C@@H](O)[C@H](C)[C@@]2(O)C[C@@H](O)[C@H](C)[C@@H](C(C)C)O2)OC1=O` [Baf A1, Bafilomycin A1], in the series with H9C2 cells [1] (setting [8]), the “Acridine Orange red puncta (lysosomal acidification)” value was “loss of Acridine Orange (AO) red puncta” and the “lysosomal pH (Lysosensor)” value is “rise in lysosomal pH”. The “LC3-II and p62 protein levels” value in the series on LC3-II and p62 was “increased LC3-II and p62 protein levels”. Besides, the “autophagic flux, tandem RFP-GFP-LC3 reporter” value in the series on H9C2 cells [2] (H9C2, Baf A1 alone) is “accumulation of red+green autophagosomes (AP) and to the reduction of red-only autolysosomes”. For the same compound, in the series with H9C2 cells [2] (H9C2, Baf A1 treatment alone), the “autophagosomes in GFP-LC3-transduced cells” value is on record as “accumulation of autophagosomes (AP)”.
With `COc1cccc2c1C(=O)c1c(O)c3c(c(O)c1C2=O)C[C@@](O)(C(=O)CO)C[C@@H]3O[C@H]1C[C@H](N)[C@H](O)[C@H](C)O1` [doxorubicin], in series [3], the “mitochondrial ROS (mitoSOX)” value is given as “mitochondrial ROS increase”. Further, the “mitochondrial membrane potential (JC-1)” value with H9C2 cells [4] is reported as “drop in mitochondrial membrane potential”. Besides, the “duration of A.O. red fluorescence alteration” value in series [5] is “maintained until 40 h”. In series [5] (24 h), the A.O. red fluorescence result is reported as “decrease in A.O. red fluorescence”. In the series with H9C2 cells [6], the “oxidative stress (ROS, DCFDA)” value is “accumulation of oxidative stress”. In addition, in the series on H9C2 cells [1] (H9C2, doxorubicin 1 μM alone), the AO red fluorescence result is “significantly decreased AO red fluorescence” and the “lysosomal pH (lysosensor blue/yellow ratio)” value is given as “increased lysosomal pH”. Further, the “cell death at the dose used in prior experiments” value in series [7] is “rapid cell death in only 24 hours”. Besides, in the series with H9C2 cells [2] (H9C2, doxorubicin 1 μM alone), the “autolysosomes (AL), GFP-RFP-LC3 reporter” value is recorded as “accumulation of autolysosomes (AL)” and the “number of autophagosomes (AP), GFP-RFP-LC3 reporter” value is listed as “remained unchanged”.
